{"source": "patent US7745465B2", "about": "“Method of enhancing cellular production of molecular chaperone, hydroxylamine derivatives useful for enhancing the chaperone production and the preparation thereof” (CytRx Corporation, priority 1995, dated 2010)", "key": {"hsp72 gene": {"system": "hsp72 gene", "test": "Northern blot of hsp72 mRNA in rat heart ventricles", "type": "in vivo", "protocol": "Experiments were carried out in SPRD male rats. Animals were anaesthetized with Nembutal in a dose of 60 mg/kg/i.p. Body temperature of the rats were maintained with an infra lamp placed over the abdomen and the rectal temperature was measured. After a 25-40 minute period the temperature of the rats increased to 42.0-42.2° C. and this temperature was maintained for 15 minutes. After a recovery period (2 hrs), tissue samples were collected from the left and right ventricles.\nExperiments were carried out in SPRD male rats. The animals were anaesthetized with Nembutal in a dose of 60 mg/kg/i.p. After opening the chest and pericardium, the LAD coronary artery was occluded for 5 minutes and then the incidence and duration of ventricular tachycardia and fibrillation in the reperfusion period (10 minutes) were investigated. Tissue samples were collected from the left and right ventricles.\nTotal RNA was extracted using RN Agents kit (Promega) according to the manufacturer's instructions (Protocols and Applications Guide, 2nd edition, 1991, Promega Corporation). […]\nPrehybridizations were carried out at 65° C. in H-buffer (0.25M Na2HPO4, pH 7.2, 7% SDS) for 15 minutes. […] The membrane was washed with 20 mM Na2HPO4, pH 7.2, 5% SDS (65 C; 2×15 min.) and evaluated by autoradiography. […]"}, "[1]": {"system": "mitochondrial ATP synthesis", "test": "Coupling of oxidative phosphorylation / mitochondrial ATP synthesis after heat shock (oxygraph)", "type": "cell-based, Saccharomyces cerevisiae", "settings": "10 to 100 μM, one hour at 25° C. before 42° C. heat shock", "protocol": "The experimental protocol for determining the impairment of oxidative phosphorylation and mitochondrial ATP synthesis in Saccharomyces cerevisiae is provided in Patriarca et al., Bio-chemistry and Cell Biology, 70:207-214, 1992, said reference being fully incorporated herein by reference.\nTo S. cerevisiae cells that were maintained at 25° C., varying concentration of N-[2-hydroxy-3-(1-piperidinyl)propoxy]-3-piridinecarboximidoyl chloride maleate was introduced (concentrations between 10 to 100 μM), cells were then incubated for one hour at 25° C. in the presence of N-[2-hydroxy-3-(1-piperidinyl)propoxy]-3-piridinecarboximidoyl chloride maleate. The temperature was then increased to 42° C., and the oxygraph measurements were taken as described in the Patriarca reference."}, "[2]": {"system": "WEHI mouse fibrosarcoma cell", "test": "Serum deprivation, cell viability by MTT test (WEHI)", "type": "cell-based", "settings": "serum deprived WEHI, 10^−5 M, control 100%, serum deprived alone 74.8%, read-out: relative cell viability", "protocol": "Experiments were carried out using WEH1 mouse fibrosarcoma and H9c2 rat heart muscle cell lines divided into three groups: • control (10% FCS fetal calf serum) • serum deprived • N-[2-hydroxy-3-(1-piperidinyl)propoxy]-3-pyridinecarboximidoyl chloride maleate (10^−5 M) treated and serum deprived 1.2(i) Serum Deprivation and MTT Test\nWe have screened various cell lines, drug concentrations, pretreatment and deprivation times and we have found the most appropriate conditions as follows: […] H9c2 rat heart muscle cell (n=6) and WEHI mouse fibrosarcoma cell (n=7) have been plated on 24 well plates in 10% FCS DMEM (Dulbecco modified Eagle's medium) and incubated for 2 hours at 37 C, 5% CO2. Medium has been discarded and replaced by 10% FCS DMEM containing 10^−5 M N-[2-hydroxy-3-(1-piperidinyl)propoxy ]-3-pyridinecarboximidoyl chloride maleate. […] Cell viability was measured by MTT test based on the method of Plumb et al. (Cancer Res. 49: 4435-4444 (1989)) The tetrazolium salt method involving conversion of MTT (3-(4,5-dimethylthiazol-2yl)-2,5-diphenyltetrazolium bromide) to colored formazan by alive cells, served as an indirect measurement of cell viability. […] O.D. of the plates was read at 570 nm on an ELISA plate reader (Labsystems Multiskan Biochromatic type:348). […] Relative cell viability was calculated defining control group as 100%."}, "yeast cells": {"system": "yeast cells", "test": "Proliferation of yeast cells", "type": "cell-based"}}}
{"smiles": "O=C(O)/C=C\\C(=O)O.OC(CON=C(Cl)c1cccnc1)CN1CCCCC1", "note": "(centres unmarked) [N-[2-hydroxy-3-(1-piperidinyl)-propoxy]3-pyridinecarboximidoyl chloride maleate]", "values": [{"measurement": "expression of hsp72 gene in heart muscle preparations", "setting": "hsp72 gene; 100 mg/kg p.o., ischemia", "value": "highly increased expression of hsp72 gene"}, {"measurement": "activation of the hsp72 gene", "setting": "hsp72 gene; in the absence of stress, compound alone", "value": "unable to activate the hsp72 gene"}, {"measurement": "protection from the impairment of mitochondrial ATP synthesis", "setting": "[1]", "value": "40-60%"}, {"measurement": "viability at 10 µM", "setting": "[2]", "value": 93, "unit": "%"}, {"measurement": "proliferative effect", "setting": "yeast cells", "value": "unexpected proliferative effect"}]}
